Assay results taken from BindingDB's records for doi:10.1021/jm9508696 (Sandoz Research Institute, 1996).
pKi: −log10 of the molar value.

Each compound was assayed against T1, Dimer of Gag-Pol polyprotein [489-587] (Human immunodeficiency virus 1, UniProt P12497) (assay: Protease Inhibition Assay). Details: not given.
T1 construct: 489-587
Protocol: Enzymatic activity was measured by following cleavage of the substrate H-Lys-Ala-Arg-Val-Leu-pNph-Glu-Ala-Nle-NH2. Products of the cleavage reaction were quantified by HPLC detection
COc1ccc(CN[C@@H](C(=O)N[C@H]2c3ccccc3C[C@H]2O)[C@H](O)[C@H](Cc2ccccc2)NC(=O)[C@@H](NC(=O)OC(C)(C)C)C(C)(C)C)cc1 [tert-butyl N-[(1S)-1-{[(2S,3R,4R)-3-hydroxy-4-{[(1S,2R)-2-hydroxy-2,3-dihydro-1H-inden-1-yl]carbamoyl}-4-{[(4-methoxyphenyl)methyl]amino}-1-phenylbutan-2-yl]carbamoyl}-2,2-dimethylpropyl]carbamate] was tested, and the pKi was 6.68.
Compound CC(C)(C)[C@H](NC(=O)OCc1ccccc1)C(=O)N[C@@H](Cc1ccccc1)[C@@H](O)[C@@H](NCc1ccc(CNC(=O)CCc2nc3ccccc3[nH]2)cc1)C(=O)N[C@H]1c2ccccc2C[C@H]1O [benzyl N-[(1S)-1-{[(2S,3R,4R)-4-{[(4-{[3-(1H-1,3-benzodiazol-2-yl)propanamido]methyl}phenyl)methyl]amino}-3-hydroxy-4-{[(1S,2R)-2-hydroxy-2,3-dihydro-1H-inden-1-yl]carbamoyl}-1-phenylbutan-2-yl]carbamoyl}-2,2-dimethylpropyl]carbamate] has a pKi of 8.39.
COc1ccc(CN[C@@H](C(=O)N[C@H]2c3ccccc3C[C@H]2O)[C@H](O)[C@H](Cc2ccccc2)NC(=O)[C@@H](NC(=O)/C=C/c2ccc(OC)c(O)c2)C(C)(C)C)cc1 [(2R,3R,4S)-3-hydroxy-N-[(1S,2R)-2-hydroxy-2,3-dihydro-1H-inden-1-yl]-4-[(2S)-2-[(2E)-3-(3-hydroxy-4-methoxyphenyl)prop-2-enamido]-3,3-dimethylbutanamido]-2-{[(4-methoxyphenyl)methyl]amino}-5-phenylpentanamide] was tested, and the pKi was 8.24.
Work on COc1ccc(CN[C@@H](C(=O)N[C@H]2c3ccccc3C[C@H]2O)[C@H](O)[C@H](Cc2ccccc2)NC(=O)[C@@H](NC(=O)CCc2ccccc2O)C(C)(C)C)cc1 [(2R,3R,4S)-3-hydroxy-N-[(1S,2R)-2-hydroxy-2,3-dihydro-1H-inden-1-yl]-4-[(2S)-2-[3-(2-hydroxyphenyl)propanamido]-3,3-dimethylbutanamido]-2-{[(4-methoxyphenyl)methyl]amino}-5-phenylpentanamide] yielded a pKi of 7.89.
For COc1ccc(CN[C@@H](C(=O)N[C@H]2c3ccccc3C[C@H]2O)[C@H](O)[C@H](Cc2ccccc2)NC(=O)[C@@H](NC(=O)CSc2nncn2C)C(C)(C)C)cc1 [(2R,3R,4S)-4-[(2S)-3,3-dimethyl-2-{2-[(4-methyl-4H-1,2,4-triazol-3-yl)sulfanyl]acetamido}butanamido]-3-hydroxy-N-[(1S,2R)-2-hydroxy-2,3-dihydro-1H-inden-1-yl]-2-{[(4-methoxyphenyl)methyl]amino}-5-phenylpentanamide], the pKi was 8.24.
With COc1ccc(CN[C@@H](C(=O)N[C@H]2c3ccccc3C[C@H]2O)[C@H](O)[C@H](Cc2ccccc2)NC(=O)[C@@H](NC(=O)CCc2ccc(OC)c(O)c2)C(C)(C)C)cc1 [(2R,3R,4S)-3-hydroxy-N-[(1S,2R)-2-hydroxy-2,3-dihydro-1H-inden-1-yl]-4-[(2S)-2-[3-(3-hydroxy-4-methoxyphenyl)propanamido]-3,3-dimethylbutanamido]-2-{[(4-methoxyphenyl)methyl]amino}-5-phenylpentanamide] the pKi was 8.11.
Work on COc1ccc(CN[C@@H](C(=O)N[C@H]2c3ccccc3C[C@H]2O)[C@H](O)[C@H](Cc2ccccc2)NC(=O)[C@@H](NC(=O)/C=C/c2ccc(OC)cc2O)C(C)(C)C)cc1 [(2R,3R,4S)-3-hydroxy-N-[(1S,2R)-2-hydroxy-2,3-dihydro-1H-inden-1-yl]-4-[(2S)-2-[(2E)-3-(2-hydroxy-4-methoxyphenyl)prop-2-enamido]-3,3-dimethylbutanamido]-2-{[(4-methoxyphenyl)methyl]amino}-5-phenylpentanamide] yielded a pKi of 7.74.
With COc1ccc(CN[C@@H](C(=O)N[C@H]2c3ccccc3C[C@H]2O)[C@H](O)[C@H](Cc2ccccc2)NC(=O)[C@@H](NC(=O)CSc2nnc(C)s2)C(C)(C)C)cc1 [(2R,3R,4S)-4-[(2S)-3,3-dimethyl-2-{2-[(5-methyl-1,3,4-thiadiazol-2-yl)sulfanyl]acetamido}butanamido]-3-hydroxy-N-[(1S,2R)-2-hydroxy-2,3-dihydro-1H-inden-1-yl]-2-{[(4-methoxyphenyl)methyl]amino}-5-phenylpentanamide] the pKi was 8.10.

Same assay, conditions: pH 6.25; 37 °C
For CC(C)(C)OC(=O)N[C@@H](Cc1ccccc1)[C@@H](O)[C@@H](NCc1ccc(OCCO)cc1)C(=O)N[C@H]1c2ccccc2C[C@H]1O [tert-butyl N-[(2S,3R,4R)-3-hydroxy-4-{[(1S,2R)-2-hydroxy-2,3-dihydro-1H-inden-1-yl]carbamoyl}-4-({[4-(2-hydroxyethoxy)phenyl]methyl}amino)-1-phenylbutan-2-yl]carbamate], the pKi was 7.10.
CC(C)(C)OC(=O)N[C@@H](Cc1ccccc1)[C@@H](O)[C@@H](NCc1ccccc1)C(=O)NCc1ccccc1 [tert-butyl N-[(2S,3R,4R)-4-(benzylamino)-4-(benzylcarbamoyl)-3-hydroxy-1-phenylbutan-2-yl]carbamate] was tested, and the pKi was 5.60.
Work on COc1ccc(CN[C@@H](C(=O)N[C@H]2c3ccccc3C[C@H]2O)[C@H](O)[C@H](Cc2ccccc2)NC(=O)C(CC(N)=O)NC(=O)OCc2ccccc2)cc1 (stereo partly drawn) [benzyl N-(2-carbamoyl-1-{[(2S,3R,4R)-3-hydroxy-4-{[(1S,2R)-2-hydroxy-2,3-dihydro-1H-inden-1-yl]carbamoyl}-4-{[(4-methoxyphenyl)methyl]amino}-1-phenylbutan-2-yl]carbamoyl}ethyl)carbamate] yielded a pKi of 7.82.
In the case of CCOc1ccc(CN[C@@H](C(=O)N[C@H]2c3ccccc3C[C@H]2O)[C@H](O)[C@H](Cc2ccccc2)NC(=O)OC(C)(C)C)cc1 [tert-butyl N-[(2S,3R,4R)-4-{[(4-ethoxyphenyl)methyl]amino}-3-hydroxy-4-{[(1S,2R)-2-hydroxy-2,3-dihydro-1H-inden-1-yl]carbamoyl}-1-phenylbutan-2-yl]carbamate], the pKi was 7.04.
In the case of COc1ccc(CN[C@@H](C(=O)N[C@H]2c3ccccc3C[C@H]2O)[C@H](O)[C@H](Cc2ccccc2)NC(=O)C(NC(=O)OCc2ccccc2)C(C)C)cc1 (stereo partly drawn) [benzyl N-(1-{[(2S,3R,4R)-3-hydroxy-4-{[(1S,2R)-2-hydroxy-2,3-dihydro-1H-inden-1-yl]carbamoyl}-4-{[(4-methoxyphenyl)methyl]amino}-1-phenylbutan-2-yl]carbamoyl}-2-methylpropyl)carbamate], the pKi was 8.09.
In the case of CC(C)(C)OC(=O)N[C@@H](Cc1ccccc1)[C@@H](O)[C@@H](NCc1ccc(CNC(=O)Nc2ccccc2)cc1)C(=O)N[C@H]1c2ccccc2C[C@H]1O [tert-butyl N-[(2S,3R,4R)-3-hydroxy-4-{[(1S,2R)-2-hydroxy-2,3-dihydro-1H-inden-1-yl]carbamoyl}-1-phenyl-4-{[(4-{[(phenylcarbamoyl)amino]methyl}phenyl)methyl]amino}butan-2-yl]carbamate], the pKi was 7.48.
Work on COc1ccc(CN[C@@H](C(=O)N[C@H]2c3ccccc3C[C@H]2O)[C@H](O)[C@H](Cc2ccccc2)NC(=O)C(CC(=O)O)NC(=O)OCc2ccccc2)cc1 (stereo partly drawn) [3-{[(benzyloxy)carbonyl]amino}-3-{[(2S,3R,4R)-3-hydroxy-4-{[(1S,2R)-2-hydroxy-2,3-dihydro-1H-inden-1-yl]carbamoyl}-4-{[(4-methoxyphenyl)methyl]amino}-1-phenylbutan-2-yl]carbamoyl}propanoic acid] yielded a pKi of 7.66.
In the case of COc1ccc(CN[C@@H](C(=O)N[C@H](C(=O)NCc2nc3ccccc3[nH]2)C(C)C)[C@H](O)[C@H](Cc2ccccc2)NC(=O)OC(C)(C)C)cc1 [tert-butyl N-[(2S,3R,4R)-4-{[(1S)-1-[(1H-1,3-benzodiazol-2-ylmethyl)carbamoyl]-2-methylpropyl]carbamoyl}-3-hydroxy-4-{[(4-methoxyphenyl)methyl]amino}-1-phenylbutan-2-yl]carbamate], the pKi was 8.11.
In the case of COc1ccc(CN[C@@H](C(=O)N[C@H]2c3ccccc3C[C@H]2O)[C@H](O)[C@H](Cc2ccccc2)NC(=O)OC(C)(C)C)cc1 [(2R,3S,4S,1 S,2 R)-4-[[(1,1-Dimethylethoxy0carbonyl]amino]-3-hydroxy-2-[(4-methoxybenzyl)amino]-5-phenylpentan(2-hydroxy-1 indanyl)amide], the pKi was 7.19.
Compound CC(C)(C)OC(=O)N[C@@H](Cc1ccccc1)[C@@H](O)[C@@H](NCc1ccc(OCCO)cc1)C(=O)NCc1ccccc1 [tert-butyl N-[(2S,3R,4R)-4-(benzylcarbamoyl)-3-hydroxy-4-({[4-(2-hydroxyethoxy)phenyl]methyl}amino)-1-phenylbutan-2-yl]carbamate] has a pKi of 5.92.
Compound CC(C)(C)OC(=O)N[C@@H](Cc1ccccc1)[C@@H](O)[C@@H](NCc1ccc(CNC(=O)CCc2nc3ccccc3[nH]2)cc1)C(=O)NCc1ccccc1 [tert-butyl N-[(2S,3R,4R)-4-{[(4-{[3-(1H-1,3-benzodiazol-2-yl)propanamido]methyl}phenyl)methyl]amino}-4-(benzylcarbamoyl)-3-hydroxy-1-phenylbutan-2-yl]carbamate] has a pKi of 6.17.
CCC(C)C(NC(=O)OCc1ccccc1)C(=O)N[C@@H](Cc1ccccc1)[C@@H](O)[C@@H](NCc1ccc(OC)cc1)C(=O)N[C@H]1c2ccccc2C[C@H]1O (stereo partly drawn) [benzyl N-(1-{[(2S,3R,4R)-3-hydroxy-4-{[(1S,2R)-2-hydroxy-2,3-dihydro-1H-inden-1-yl]carbamoyl}-4-{[(4-methoxyphenyl)methyl]amino}-1-phenylbutan-2-yl]carbamoyl}-2-methylbutyl)carbamate] was tested, and the pKi was 8.09.
CC(C)(C)OC(=O)N[C@@H](Cc1ccccc1)[C@@H](O)[C@@H](NCc1ccc(OCCN2CCOCC2)cc1)C(=O)N[C@H]1c2ccccc2C[C@H]1O [tert-butyl N-[(2S,3R,4R)-3-hydroxy-4-{[(1S,2R)-2-hydroxy-2,3-dihydro-1H-inden-1-yl]carbamoyl}-4-[({4-[2-(morpholin-4-yl)ethoxy]phenyl}methyl)amino]-1-phenylbutan-2-yl]carbamate] was tested, and the pKi was 6.89.
